Experimental data as given in patent publication US4298739A, “Novel carbostyril derivatives” (priority 1977, dated 1981).

Legend:
[1] = test system: rabbit platelet; experiment: ADP-induced aggregation in rabbit platelets (AG-II Aggregometer); assay type: cell-based; design: inhibition: dose or concentration left out as unconfirmed; settings: Oryctolagus cuniculus, Platelet, read-out: Inhibition effect on ADP-induced aggregation in rabbit platelet; for inhibition at 10 µM (stock): 10^-5 mole; for inhibition at 1 µM (stock): 10^-6 mole; for inhibition at 100 µM (stock): 10^-4 mole
Protocol: (§1) The platelet aggregation inhibitory effect is measured by using AG-II Aggregometer (manufactured by Bryston Manufacturing Co.). The blood sample used for the test is a 1/9 (by volume) mixture of sodium citrate and whole blood collected from rabbit. Said sample is subjected to 10-minute centrifugal separation at 1,000 r.p.m. to obtain a platelet rich plasma (PRP). The thus obtained PRP is separated, and the remaining blood sample is further subjected to 15-minute centrifugal separation at 3,000 r.p.m. to obtain a platelet poor plasma (PPP).
(§2) The number of platelets in the PRP is counted by the Brecher-Clonkite Method, and the PRP is diluted with the PPP to prepare a PRP sample with platelet concentration of 300,000/mm^3 for the adenosine diphosphate (ADP)-induced aggregation test. There is also prepared a PRP sample with platelet concentration of 450,000/mm^3 for the collagen-induced aggregation test.
(§3) 0.6 ml of said PRP sample is added into 0.01 ml of a solution of a test compound of a predetermined concentration and the mixture is placed in a 37° C. thermostat for one minute. Then 0.07 ml of an ADP or collagen solution is added to the mixture. Transmittance of this mixture is determined and the change of transmittance is recorded by using the aggregometer at stirrer speed of 1,100 r.p.m. In this test, Auren Beronal buffer (pH 7.35) is used for the preparation of the ADP or collagen solution. ADP is adjusted to a concentration of 7.5×10^-5 M, and the collagen solution is prepared by triturating 100 mg of collagen with 5 ml of said buffer and the supernatant is used as collagen inducer. Adenosine and acetylsalicylic acid are used as controls for the ADP-induced aggregation test and the collagen-induced aggregation test, respectively. The platelet aggregation inhibitory effect is measured in terms of percent inhibition with respect to the aggregation rate of the controls. The aggregation rate is calculated from the following formula:
(§4) Aggregation rate=(c-a)/(b-a)×100
(§5) b: transmittance of PRP containing a test compound and an aggregation inducer
(§6) The inhibitory effect of the tested compounds on collagen-induced aggregation in rabbit platelets is shown in Table 1, and such effect on ADP-induced aggregation is shown in Table 2. The compounds tested are as follows.

[2] = Acute toxicity test, oral administration to mice; assay type: in vivo; settings: mouse, in vivo, Male mice
Protocol: The test compounds were administered orally to the mice and LD50 (mg/kg) of the compounds was determined.

[3] = test system: rabbit platelet; experiment: Collagen-induced aggregation in rabbit platelets (AG-II Aggregometer); assay type: cell-based; design: inhibition: dose or concentration left out as unconfirmed; settings: Oryctolagus cuniculus, Platelet, read-out: Inhibition effect on collagen induced aggregation in rabbit platelet; for inhibition at 10 µM (stock): 10^-5 mole; for inhibition at 1 µM (stock): 10^-6 mole; for inhibition at 100 µM (stock): 10^-4 mole; for inhibition at 0.1 µM (stock): 10^-7 mole
Protocol: as §1, §2, §3, §4, §5, §6

SMILES	inhibition at 10 µM (stock) [1] [%]	inhibition at 1 µM (stock) [1] [%]	LD50 [2] [mg/kg]	inhibition at 10 µM (stock) [3] [%]	inhibition at 1 µM (stock) [3] [%]	inhibition at 100 µM (stock) [1] [%]	inhibition at 100 µM (stock) [3] [%]	other results
CN(C(=O)CCCOc1ccc2[nH]c(=O)ccc2c1)C1CCC(O)CC1 (centres unmarked) [compound 2, 6-{3-[N-Methyl-N-(4-hydroxycyclohexyl)aminocarbonyl]propoxy}carbostyril]	90.3	54.3	> 1000	100	89.7	–	–	–
COc1ccc(CCN(C)C(=O)CCCOc2ccc3[nH]c(=O)ccc3c2)cc1OC [compound 4, 6-{3-[N-Methyl-N-(2-3',4'-dimethoxyphenylethyl)aminocarbonyl]propoxy}carbostyril]	16.1	6.9	> 1000	46.5	19.2	70.4	82.9	–
O=C(CCCOc1ccc2[nH]c(=O)ccc2c1)N(Cc1ccccc1)C1CCCCC1 [compound 5, 6-{3-(N-Cyclohexyl-N-benzylaminocarbonyl)propoxy]carbostyril]	90.7	61.2	> 1000	91.8	88.4	–	–	inhibition at 0.1 µM (stock) ([1]; 10^-7 mole): 18.9%; inhibition at 0.1 µM (stock) [3]: 30.6%
CN(C(=O)CCCOc1ccc2[nH]c(=O)ccc2c1Cl)C1CCCCC1 [compound 6, 5-Chloro-6-[3-(N-methyl-N-cyclohexylaminocarbonyl)propoxy]carbostyril]	5.4	–	> 1000	53.3	12.3	87.2	100	–
O=C1CCc2cc(OCCCC(=O)N(C3CCCCC3)C3CCCCC3Cl)ccc2N1 (centres unmarked) [compound 7, 6-{3-[N-Cyclohexyl-N-(2-chlorocyclohexyl)aminocarbonyl]propoxy}-3,4-dihydrocarbostyril]	–	–	> 1000	–	–	–	–	inhibition [1]: 82.9%; inhibition [3]: 89.9%
CN(C(=O)CC(O)COc1ccc2[nH]c(=O)ccc2c1)C1CCCCC1 (centres unmarked) [compound 8, 6-[2-Hydroxy-3-(N-methyl-N-cyclohexylaminocarbonyl)propoxy]carbostyril]	41.1	–	> 1000	86.8	2.9	91.7	85.5	–
CC(COc1ccc2[nH]c(=O)ccc2c1)CC(=O)N(C)C1CCCCC1 (centres unmarked) [compound 9, 6-[3-(N-Methyl-N-cyclohexylaminocarbonyl)-2-methylpropoxy]carbostyril]	70.4	5.8	> 1000	100	100	92.8	100	inhibition at 0.1 µM (stock) [3]: 11.2%
CN(C(=O)CCCOc1ccc(O)c2c1CCC(=O)N2)C1CCCCC1 [compound 10, 8-Hydroxy-5-[3-(N-Methyl-N-cyclohexylaminocarbonyl)propoxy]-3,4-dihydrocarbostyril]	18.4	–	> 1000	29.3	–	53.9	91.8	–
COc1ccc(CCN(Cc2ccccc2)C(=O)CCCOc2ccc3c(c2)CCC(=O)N3)cc1OC [compound 11, 6-{3-[N-Benzyl-N-(2-3',4'-dimethoxyphenylethyl)aminocarbonyl]propoxy}-3,4-dihydrocarbostyril]	12.5	16.9	> 1000	75.8	28.1	87.5	88.1	–
CCN(C(=O)CCCOc1c(Cl)cc(Cl)c2c1CCC(=O)N2)c1ccccc1 [compound 12, 6,8-Dichloro-5-[3-(N-ethylanilinocarbonyl)propoxy]-3,4-dihydrocarbostyril]	33.8	12.7	> 1000	65.2	33.8	71.7	82.6	–
O=C(CCCOc1ccc2[nH]c(=O)ccc2c1)NC1CCCCC1 [compound 13, 6-[3-(N-Cyclohexylaminocarbonyl)propoxy]carbostyril]	24.8	18	> 1000	45.8	23.3	39.6	87.5	–
C=CCN(C(=O)CCCOc1ccc2c(c1)CCC(=O)N2)C1CCCCC1 [compound 14, 6-[3-(N-Allyl-N-cyclohexylaminocarbonyl)propoxy]-3,4-dihydrocarbostyril]	25.7	15.1	> 1000	42.3	15.7	41.3	82.4	–
CCOC(=O)C(C)Oc1ccc2c(c1)CCC(=O)N2 (centres unmarked) [compound 25, 6-(1-Ethoxycarbonylethoxy)-3,4-dihydrocarbostyril, reference compound]	–	–	> 1000	–	–	–	–	–
CCOC(=O)C(C)Oc1ccc2[nH]c(=O)ccc2c1 (centres unmarked) [compound 26, 6-(1-Ethoxycarbonylethoxy)carostyril, reference compound]	–	–	> 1000	–	–	–	–	–
CCOC(=O)C(C)Oc1ccc2c(c1)CCC(=O)N2C (centres unmarked) [compound 27, 1-Methyl-6-(1-ethoxycarbonylethoxy)-3,4-dihydrocarbostyril, reference compound]	–	–	800 to 1000	–	–	–	–	–
CCOC(=O)C(C)Oc1ccc2c(c1)NC(=O)CC2 (centres unmarked) [compound 28, 7-(1-ethoxycarbonylethoxy)-3,4-dihydrocarbostyril, reference compound]	–	–	> 1000	–	–	–	–	–
CCCCCOC(=O)C(C)Oc1ccc2c(c1)CCC(=O)N2 (centres unmarked) [compound 30, 6-(1-Amyloxycarbonylethoxy)-3,4-dihydrocarbostyril, reference compound]	–	–	> 1000	–	–	–	–	–
CC(C)OC(=O)C(C)Oc1ccc2[nH]c(=O)ccc2c1 (centres unmarked) [compound 31, 6-(1-Isopropoxycarbonylethoxy)carbostyril, reference compound]	–	–	900 to 1000	–	–	–	–	–
CCOC(=O)CCCOc1cccc2c1CCC(=O)N2 [compound 32, 5-(3-Ethoxycarbonylpropoxy)-3,4-dihydrocarbostyril, reference compound]	–	–	> 1000	–	–	–	–	–
CCCCCOC(=O)CCCOc1ccc2c(c1)CCC(=O)N2 [compound 33, 6-(3-Amyloxycarbonylpropoxy)-3,4-dihydrocarbostyril, reference compound]	–	–	> 1000	–	–	–	–	–
CCOC(=O)CCCCCCOc1ccc2c(c1)CCC(=O)N2 [compound 35, 6-(6-Ethoxycarbonylhexyloxy)-3,4-dihydrocarbostyril, reference compound]	–	–	750 to 1000	–	–	–	–	–
O=C(O)CCCCCCOc1ccc2c(c1)CCC(=O)N2 [compound 36, 6-(6-Carboxyhexyloxy)-3,4-dihydrocarbostyril, reference compound]	–	–	> 1000	–	–	–	–	–
CCOC(=O)C(C)Oc1cccc2c1NC(=O)CC2 (centres unmarked) [compound 37, 8-(1-Ethoxycarbonylethoxy)-3,4-dihydrocarbostyril, reference compound]	–	–	900 to 1000	–	–	–	–	–
CC(=O)Oc1ccccc1C(=O)O [compound 46, Aspirin, reference compound]	0	–	–	–	–	7	–	inhibition [3]: 9%
